In patent US10119958B2, “Arrays and methods for guided cell patterning” (University of Washington, priority 2007, dated 2018):
Where no end group is shown, it is not given here.

Experiments:
HUVE cells [1] = experiment: Cell viability assay (apoptosis and necrosis, Annexin V / propidium iodide) of patterned HUVE cells; type: cell-based, human; conditions: after 7 days of cell adhesion
From the text: Retaining cell viability after cell adhesion is essential for cell biology studies and biomedical applications such as cell-based sensors and drug screening microarrays. The viability of cells patterned on the three model platforms were studied with an apoptosis assay noted in EXAMPLE section. FIGS. 10A-F show fluorescence images of HUVE cells on cell patterning platforms immobilized with (a) fibronectin, (b) REDVY peptide, and (c) KREDVY peptide after 7 days of cell adhesion. Cells on the platform with chemically bound fibronectin appeared apoptotic and necrotic (FIGS. 10A and 10D). This might be caused by the competitive adhesion of multiple cells on a limited surface area of the gold square-based cell adhesion regions, hindering individual cell growth and survival. […] Because the conformation of fibronectin protein on the gold square-based cell adhesion regions varies from site to site, the degree of interactions of HUVE cells with the binding peptides of the protein and the number of cells attached on each site can differ from pattern to pattern.
VYBRANT apoptosis assay allows for the simultaneous visualization of viable, necrotic, and apoptotic cells on substrates. Necrosis results from direct cell damage; apoptosis is genetically-programmed cell death in which cells effectively commit suicide. […] The substrates were incubated with 100 μL of Annexin V and 2 μL of PI solution for 15 minutes at room temperature, washed twice with binding buffer, and imaged with a fluorescence microscope.

HUVE cells [2] = experiment: Quantification of HUVE cell adhesion on gold-patterned silicon substrates (cell coverage, single cell ratio); type: cell-based, human; conditions: HUVE cells cultured 18 hours; 20 μm gold squares; 378 cell adhesion regions
Description: Thus, quantification of single cell coverage is necessary for understanding the capability of this peptide-mediated cell adhesion process. HUVE cells were cultured on fibronectin and peptide modified platforms in standard culture media for 18 hours and stained with DAPI for cell nuclei to emit blue fluorescence. Fluorescence microscopy was used to identify single or multiple cells on gold square-based cell adhesion regions. Cell coverage and single cell population for each type of surface were quantified from 378 gold square-based cell adhesion regions (3 samples×2 areas of interest with 63 cell adhesion regions per area). Cell coverage was calculated from the ratio of gold square-based cell adhesion regions covered with cells to the total number of the cell adhesion regions in the area of interest, and single cell ratio was obtained by dividing the number of gold square-based cell adhesion regions covered with single cells to the total number of cell adhesion regions covered with cells (single or multiple). Exemplary images of adhered cells on three model platforms are shown in FIGS. 9A-D, and quantification results are shown in Table 1. As expected, the fibronectin and KREDVY modified surfaces have higher cell coverage than the REDVY modified surface due to larger number binding domains available on the former two surfaces than on the latter. Both peptide modified surfaces have much higher single cell ratios than the fibronectin modified surface. Clearly, the KREDVY modified surface is the best candidate for single cell patterning in light of both cell coverage and single cell ratio. As a side note, for electrical recording, it is easy to distinguish between single and multiple cells, allowing either type of site to be observed selectively.
HUVE cells were cultured in EGM-2 medium supplemented with bovine brain extract (BBE), hydrocortisone, hFGF-B, VEGF, R3-IGF-1, ascorbic acid, heparin, FBS, hEGF, and GA-1000. The final serum concentration was 2%. Cells were seeded on culture flasks at passage 1 and the medium was changed after 24 hours. At 70% confluency, cells were subcultured as follows. After aspiration from culture flasks, cells were rinsed with 2-3 ml of HEPES-BSS buffer solution for 3 times, followed by incubation with 2 ml of trypsin/EDTA solution. The trypsinization process continued until about 90% of the cells were collected. After cells were released, the trypsin was neutralized in the flask with 4 ml of TNS, and the detached cells were transferred to a 15-ml sterile centrifuge tube. The harvested cells were centrifuged at 220 g for 5 minutes. Cells were diluted in growth medium. Cells at a concentration of 1.5×10^5 cells/ml were seeded on the substrates. The substrates were incubated for 18 hours before fixation with a mixture of 2% glutaraldehyde and paraformaldehyde in phosphate buffer solution for optical microscopy and with 4% paraformaldehyde for fluorescence microscopy.

[3] = system: RAW264.7 cells (murine monocyte/macrophage); experiment: DIC reflectance microscopy of macrophage morphology after LPS exposure; type: cell-based; conditions: LPS 0.1, 1.0 and 10 μg/mL, 21 hours
From the text: Cell-cultured surfaces were examined with a differential interference contrast (DIC) reflectance microscope (Nikon E800 Upright Microscope, NY, N.Y.) equipped with DIC-20× (N.A. 0.46) and DIC-50× (N.A. 0.8) objectives. Images were acquired with a Coolsnap camera (series A99G81021, Roper Scientific Inc., AZ, USA) attached to the microscope and a computer. […] FIGS. 12A, 12C, and 12E are optical DIC images of electrodes with a single cell, double cells, and triple cells, respectively.

[4] = system: RAW264.7 cells (murine monocyte/macrophage); experiment: Synchrotron FTIR spectromicroscopy of patterned macrophage cells exposed to LPS; type: cell-based; conditions: for peak of amide I group post-exposure: single cells, eight electrodes of two substrates
From the text: Cells in an isolated state (e.g., one cell on each microelectrode) generally respond differently to an external stimulus than when they are in a communicating state (e.g., a cluster of cells on a microelectrode).
IR spectra and optical reflectance DIC images were acquired from cells on the patterned substrates with single or a group of macrophage cells on each electrode both before and after cellular exposure to LPS. Synchrotron FTIR spectra were acquired from cell-patterned surfaces with a Nicolet Magna 760 FTIR bench and a Nicolet Nic-Plan™ IR microscope equipped with a computer-controlled x-y-z sample stage (via Nicolet Atlμs™ and OMNIC software) and an MCT-A detector at Beamline 1.4.3 of the Advanced Light Source (ALS) in Lawrence Berkeley National Laboratory, Berkeley. C A. Martin, M. C. and McKinney, R. W., Proceed. Mater. Res. Soc. 524, 11-15, 1998; C A. Martin, M. C. and McKinney, R. W., Proceedings of the Low Energy Electrodynamics in Solids, '99 Conference, Pécs, Hungary, Special Issue of Ferroelectrics, 249, 1-10, 2001. In order to align the incident IR beam onto the substrate, an IR map (with 2-10 μm step size in x-y plane) was acquired around a gold electrode for a full IR range of 400-10,000 wave numbers. Under this condition, the whole spectrum appeared as a broad peak and an intensity profile was given for the mapped region. The x, y positions were adjusted so that the highest intensity region of the beam was aligned with the center of the gold electrode. The samples were measured at wave numbers of 650-10,000 cm^−1 using an XT-KBr beamsplitter and an MCT detector. The synchrotron infrared light is focused to a diffraction-limited spot size with a wavelength-dependent diameter of approximately 3-10 μm across the mid-IR range of interest. Carr, G. L. Review of Scientific Instruments 72, 1613-1619, 2001; and Dumas, P., et al., Faraday Discussions 126, 289-302, 2004. An on-stage temperature controlled mini incubator was used to maintain a proper environment for cellular analysis. Prior to infrared analysis, dead and loosely bound cells were removed from the substrate by three PBS washes (to eliminate the possible interference of dead and loosely bound cells to the real-time signals generated by live cells), the cell culture medium was replaced with fresh sterile medium, and the substrate covered with a layer of the medium was transferred to the mini incubator. The spectra were acquired in less than 10 minutes following the sample transfer to ensure cell viability and to minimize possible interference from environmental changes. Synchrotron FTIR spectra of 128 scans at a resolution of 8 cm^−1 were acquired from individual electrodes patterned with cells. Background signals were collected from the silicon oxide surface of the same substrate right before the data collection. […] All spectra were baseline-corrected and normalized to account for the continuous decay of the synchrotron beam in the storage ring. An appropriately scaled water vapor spectrum was subtracted from the spectra of cells. The spectra obtained with conventional FTIR were acquired from cell-patterned surfaces using a Thermo-Electron Nexus 870 bench and a Thermo-Electron Continuum infrared microscope with an MCT-A detector at Beamline 1.4.4 of the ALS under the same conditions set for the synchrotron measurements, except that an aperture size of 90 μm×90 μm were employed to maximize the signal intensity.

[5] = LPS 1 μg/mL, 21 hours, 10 μm×10 μm electrodes, mean±S.D. of four electrodes

| Substance | cell apoptosis / viability (Annexin V) (HUVE cells [1]) | cell necrosis (propidium iodide) (HUVE cells [1]) | % Cell Coverage (HUVE cells [2]) [%] | % Ratio of single-cell sites/total cell sites (HUVE cells [2]) [%] | cell morphology [3] | Amide I wave number, Double cells [4, 5] [cm⁻¹] | Amide I wave number, Single cell [4, 5] [cm⁻¹] | Amide I wave number, Triple cells [4, 5] [cm⁻¹] | peak of amide I group post-exposure ([4]; 0.1 μg/mL LPS, 21 hours) [cm⁻¹] | peak of amide I group post-exposure ([4]; 1 μg/mL LPS, 21 hours) [cm⁻¹] | peak of amide I group post-exposure ([4]; 10 μg/mL LPS, 21 hours) [cm⁻¹] | shift in wave number ([4]; single-cell platform, LPS 1.0 μg/mL) [cm⁻¹] |
| --- | --- | --- | --- | --- | --- | --- | --- | --- | --- | --- | --- | --- |
| KREDVY | remained viable throughout 7 days | No cell necrosis was observed | 78.40 ± 3.96 | 72.17 ± 2.49 | – | – | – | – | – | – | – | – |
| Fibronectin | apoptotic | necrotic | 83.47 ± 3.20 | 27.41 ± 3.64 | – | – | – | – | – | – | – | – |
| lipopolysaccharide [LPS] | – | – | – | – | enlarged, dendritic-like shape | 1665 ± 2.6 | 1661 ± 1.6 | 1658 ± 3.4 | 1659 ± 1.7 | 1661 ± 1.0 | 1676 ± 1.0 | 30 |
| Arg-Glu-Asp-Val-Tyr (REDVY) | became apoptotic at day 7 | No cell necrosis was observed | 56.28 ± 3.03 | 62.25 ± 3.23 | – | – | – | – | – | – | – | – |
